Source: US9221862B2, “Erythromycin ethylsuccinate crystalline hydrate, preparation and uses thereof” (priority 2011, dated 2015)

Assay: Hygroscopicity test according to CP2005 (RH 70%, 25° C.)
Format: physicochemical
Conditions: sampling time 48 h, 5 grams of sample
Experimental: The erythromycin ethylsuccinate crystalline hydrate according to the present invention was stable during storage. The above sample was sealed in vials and subjected to accelerated stability test at 30° C. using HPLC (C18 reverse phase column, 4.6×250 mm, 5 μm), mobile phase: 10 mmol/L sodium dodecyl sulfate solution containing 0.1% triethylamine (pH adjusted to 3.4 with phosphoric acid)—acetonitrile (55:45), detection wavelength was 205 nm, and the flow rate is 1.0 ml/min, and the change of relevant substances and content was detected. […] According to CP2005, 5 grams of the sample of the present invention was, at 25° C., placed in a relative humidity of 70% in the test for hygroscopicity. It is surprising that erythromycin ethylsuccinate hydrate leads to less hygroscopic weight gain. […] In addition, the deliquescence of anhydride makes it necessary to isolate from air during processing to prevent adhesions, while the hydrate has good sliding properties, thereby improving the operability of the formulation.

Substance: Erythromycin Ethylsuccinate 0.5 H2O Hydrate
- hygroscopic weight gain %, compared to 0 h: 0.2%

Substance: Erythromycin Ethylsuccinate 0.25 H2O Hydrate
- hygroscopic weight gain %, compared to 0 h: 0.59%
